Laboratory results from patent USRE48687E1, “Pyridinylaminopyrimidine derivatives, preparation process and use thereof” (Shanghai Allist Pharmaceuticals Co., Ltd., priority 2014, dated 2021).

Assays:
Format in all cases: cell-based
[1] = system: human lung cancer cell (HCC827, EGFR Exon 19 deletion activating mutation); experiment: Proliferation inhibition (SRB) on human lung cancer cell HCC827; details: Homo sapiens, HCC827, 72 h, SRB staining
From the text: (§1) The pharmacodynamic action of the compound of the present invention in terms of inhibiting the proliferation of cancer cells may be assayed by conventional methods. […] Inhibition ratio (%)=[(blank control OD−inhibitor OD)/blank control OD]×100%
(§2) Blank control OD: the OD value of the well of normally growed cells without the action of a drug.
(§3) Inhibitor OD: the OD value of the well of cells with the action of the added compounds to be screened.
(§4) The median inhibitory concentration (IC50) value is obtained by the software GraphPad Prism 5.0 by the 4-parameter logistic curve fit calculation. Each experiment is repeated three times, and the average IC50 value for three experiments is used as the final index for the inhibitory ability.
(§5) Cells in the logarithmic phase were inoculated to 96-well culture plates (cell density: 5000/well, cell suspension: 180 μl/well), and cultured at 37° C. under 5% CO2 for 24 hours. After the culturing, the cells adhered to the well walls. Each of compounds was dissolved in DMSO in advance to formulate a […] stock solution. Upon testing, the stock solution was diluted with complete medium to 10 times the target concentration in another 96-cell plate. And then the compound was added at 20 μl/cell in the 96-well plate in which the cells were inoculated, i.e. the target concentration could be reached. The well for each concentration was triplicated, and the blank control was established. Cells continued to be cultured at 37° C. under 5% CO2 for 72 hours. After the termination of culturing, 50 μl pre-cooled (4° C.) 50% trichloroacetic acid, i.e., TCA was added to each of wells (final concentration=10%), and was placed at 4° C. for 1 hour to fix the cells. The resulting matter was washed with purified water for at least 5 times, and dried naturally in air or at 60° C. in an oven. 4 mg/ml Sulforhodamine B (SRB) solution prepared by 1% glacial acetic acid/purified water was added at 100 μl/well to each well so as to stain for 1 hour at room temperature. The supernatant was discarded. The residue was washed with 1% acetic acid for at least 5 times to remove the non-specifically binding, and dried for use. To each well was added 150 μl of 10 mM Tris-HCl solution for dissolving the contents therein.

[2] = system: human skin cancer cell (A431, wild-type EGFR); experiment: Proliferation inhibition (SRB) on human skin cancer cell A431; details: Homo sapiens, A-431, 72 h, SRB staining
From the text: as §1, §2, §3, §4, §5

[3] = system: human lung cancer cell (H1975, EGFR L858R/T790M resistant mutation); experiment: Proliferation inhibition (SRB) on human lung cancer cell H1975; details: Homo sapiens, NCI-H1975, 72 h, SRB staining
From the text: as §1, §2, §3, §4, §5

Row | SMILES | IC50 [1] [nM] | IC50 [2] [nM] | IC50 [3] [nM]
1 | C=CC(=O)Nc1cc(Nc2ncc(Cl)c(-c3cn(C)c4ncccc34)n2)c(OC(C)C)nc1N(C)CCN(C)C [Example 19 compound, N-{2-{[2-(dimethylamino)ethyl](methyl)amino}-6-isopropyloxy-5-{[5-chloro-4-(1-methyl-1H-pyrrolo[2,3-b]pyridin-3-yl)pyrimidin-2-yl]amino}pyridin-3-yl}acrylamide] | 2.62 | 209 | 2.56
2 | C=CC(=O)Nc1cc(Nc2ncc(Cl)c(-c3cnc4c(ccn4C)c3)n2)c(OC(C)C)nc1N(C)CCN(C)C [Example 20 compound, N-{2-{[2-(dimethylamino)ethyl](methyl)amino}-6-isopropyloxy-5-{[5-chloro-4-(1-methyl-1H-pyrrolo[2,3-b]pyridin-5-yl)pyrimidin-2-yl]amino}pyridin-3-yl}acrylamide] | 8.97 | 801 | 42.4
3 | C=CC(=O)Nc1cc(Nc2ncc(Cl)c(-c3cnn(C)c3)n2)c(OC(C)C)nc1N(C)CCN(C)C [Example 21 compound, N-{2-{[2-(dimethylamino)ethyl](methyl)amino}-6-isopropyloxy-5-{[5-chloro-4-(1-methyl-1H-pyrazol-4-yl)pyrimidin-2-yl]amino}pyridin-3-yl}acrylamide] | 142 | 370 | 18.6
4 | C=CC(=O)Nc1cc(Nc2ncc(Cl)c(-c3cnc(OC)nc3)n2)c(OC(C)C)nc1N(C)CCN(C)C [Example 22 compound, N-{2-{[2-(dimethylamino)ethyl](methyl)amino}-6-isopropyloxy-5-{[5-chloro-2′-methoxy-(4,5′-bipyrimidine)-2-yl]amino}pyridin-3-yl}acrylamide] | 33.3 | 2760 | 38
5 | C=CC(=O)Nc1cc(Nc2ncc(Cl)c(-c3cnc(N)nc3)n2)c(OC(C)C)nc1N(C)CCN(C)C [Example 23 compound, N-{2-{[2-(dimethylamino)ethyl](methyl)amino}-6-isopropyloxy-5-{[5-chloro-2′-amino-(4,5′-bipyrimidine)-2-yl]amino}pyridin-3-yl}acrylamide] | 3.08 | 1140 | 30.7
